# Test results: patent US12251383B2, “Methods and compositions for KRAS inhibitors” (The Board of Regents of the University of Texas System, priority 2019, dated 2025)
# Entries after “also recorded” stand apart in the source; their conditions may differ.
# Tests used:
# [1] = tested on: H522 (KRAS^WT) lung cancer cells; experiment: Cell proliferation (CyQuant), H522; format: cell-based; conditions: 72 h
# Protocol: Cell proliferation. Potential effect of the ligands on cancer cell proliferation was tested in three lung cancer cells: SKLU-1, H1975 and H522. Cells were plated at ˜1,000 cell per well in a 96-well plate and maintained in full serum media with or without compound at 37° C. for 72 h changing the media with the compound every 24 h. Media with compound was prepared by serial dilution at concentrations indicated. Then cells were washed with PBS and frozen at −80° C. for a minimum of 24 h. Plates were thawed and CyQuant™ dye (in lysis buffer provided in the CyQuant™ cell proliferation assay kit, Invitrogen™) was added, and after a five-minute incubation, fluorescence (excitation: 480 nm emission: 520 nm) was measured with a Tecan Infinite M200 plate reader.
# HRAS^G12V = experiment: Cell signaling (Western) in BHK cells expressing HRAS G12V; format: cell-based, hamster
# Protocol: (§1) Cell signaling. The inhibitory potential of compounds was tested in monoclonal Baby Hamster Kidney (BHK) cell lines stably expressing monomeric green fluorescence protein (mGFP)-tagged KRAS^G12D, K-Ras^G12V and HRAS^G12V. Cells were cultured in Dulbecco's Modified Eagle Medium (DMEM, Hyclone) supplemented with 10% v/v bovine calf serum and incubated with compound or vehicle (DMSO) for 3 h without serum. Cells were then harvested in lysis buffer (50 mM Tris (pH 7.5), 75 mM NaCl, 25 mM NaF, 5 mM MgCl2, 5 mM EGTA, 1 mM dithiothreitol, 100 μM NaVO4, 1% Nonidet P40 plus protease inhibitors) and subjected to Western analysis controlling protein loading by BCA (bicinchoninic acid) assay. Lysates were resolved with Bio-Rad polyacrylamide TGX 10% gel, transferred to polyvinylidene fluoride (PVDF) membrane and immunoblotted using pan-AKT (2920S), GFP (2956S), pAKT^S473 (4060L), p-cRaf^S338 (9427S), p-ERK^T202/Y204 (4370L), ERK1/2 (4695S) or β-actin antibodies (Cell Signaling Technology). IC50 values were calculated with Prism 4-parameter fit.
# KRAS^G12V = experiment: Cell signaling (Western) in BHK cells expressing KRAS G12V; format: cell-based, hamster
# Protocol: as §1
# Rap1B = Rap1B (Homo sapiens, UniProt P61224); experiment: MST binding, control Rap1B; conditions: control small GTPase
# Excerpt: FIGS. 1A-1D show representative data for the predicted binding mode and measured affinity of disclosed compound 11 to KRAS. (FIG. 1A) Structure of the catalytic domain of KRAS used for the virtual screening. Lobe1 (residues 1-86) and lobe2 (residues 87-166) are highlighted in different colors, as well as switches 1 (residues 30-40) and 2 (residues 60-75). The location of the target allosteric pocket p1 is indicated. (FIG. 1B) Chemical structure of compound 11. (FIG. 1C) Predicted binding pose of compound 11, with the key residues that make polar or vdW contacts with the ligand labeled. (FIG. 1D) Microscale thermophoresis (MST) experiments indicating direct binding of compound 11 to KRAS, along with dissociation constants (KD) derived from the curves. Changes in fluorescence upon titration of […] KRAS with increasing concentration of compound are shown: KRAS^WT (red), KRAS^G12C (green), KRAS^G12D (purple) and KRAS^Q61M (blue), each bound to the non-hydrolyzable GTP analogue, guanylyl imidodiphosphate (GNP). The same experiments indicated no binding to GDP-bound KRAS^G12D and KRAS^WT as well as Rap1B, which was used as control. […]
# [2] = molecular target: KRAS^Q61H in the GTP state (Homo sapiens, UniProt P01116, Q61H); experiment: MST binding, GTP-state KRAS Q61H
# Sequence of KRAS^Q61H in the GTP state (P01116 1-188 isoform P01116-2 Q61H): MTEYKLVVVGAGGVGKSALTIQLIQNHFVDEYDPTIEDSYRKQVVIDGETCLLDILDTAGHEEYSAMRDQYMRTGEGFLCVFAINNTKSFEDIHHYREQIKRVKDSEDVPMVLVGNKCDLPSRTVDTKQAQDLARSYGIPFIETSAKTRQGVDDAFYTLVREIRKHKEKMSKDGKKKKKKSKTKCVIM
# Sequence of Rap1B (P61224 whole entry, species assumed, the tested form may be a part): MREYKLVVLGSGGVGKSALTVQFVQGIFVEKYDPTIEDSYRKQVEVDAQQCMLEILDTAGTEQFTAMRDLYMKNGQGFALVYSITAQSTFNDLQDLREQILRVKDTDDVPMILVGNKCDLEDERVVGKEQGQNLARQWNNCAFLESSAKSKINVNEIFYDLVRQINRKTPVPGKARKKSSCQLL
smiles,measurement,setting,value
"Cc1nn2c(N3CCN(CCO)CC3)cc(-c3ccccc3)nc2c1-c1ccccc1 [Compound 11, 2-[4-(8-methyl-3,9-diphenyl-2,6,7-triazabicyclo[4.3.0]nona-2,4,7,9-tetraen-5-yl)piperazin-1-yl]ethanol]",sensitivity of proliferation,[1],sensitive
same,effect on p-AKT levels,HRAS^G12V,no major effect
same,effect on p-ERK levels,HRAS^G12V,not and no significant effect
same,effect on p-cRaf levels,HRAS^G12V,not and no significant effect
same,effect on p-ERK levels,KRAS^G12V,dose-dependently reduced; also recorded: dose-dependently decreases
same,effect on p-cRaf levels,KRAS^G12V,dose-dependently reduced; also recorded: dose-dependently decreases
same,binding (in words),Rap1B,no binding
same,Kd,[2],400 to 700 nM
